Laboratory results as given in PubChem BioAssay AID2630 (Broad Institute, 2010).
“And” between values parts separate entries of the source, which are not always exact repeats. Identical values can stand only once. Results filed as inconclusive are left out.

Tested on: T. cruzi beta-gal in NIH3T3, GalScreen luminescence, 90 h
Assay: T. cruzi infection blockers in NIH3T3 cells – beta-gal luminescence, NIH3T3 host cells, confirmation (AID 2630)

SMILES	EC50
CC(C)Oc1cccc(C(=O)C2CCCN(Cc3cnn(C(C)C)c3)C2)c1 (configuration not stated)	68 nM and 16.5 nM
CN(Cc1ccccc1)C(=O)C1CCCN(Cc2cccc(Cl)c2)C1 (configuration not stated)	231 nM and 34.7 nM
